Columns and labels:
[1] = Reaction kinetics of cysteine-reactive compounds with N-acetyl-L-cysteine methyl ester (LC-MS); type: physicochemical
Experimental: Reaction Kinetics of Cysteine-Reactive Compounds with N-Acetyl-L-Cysteine Methyl Ester
Stock solution of cysteine-reactive compound in DMSO was diluted by PBS/MeOH solution mixture (4:1, v/v; 500 μL), reaching final concentration of 10 μM. Stock solution of N-acetyl-L-cysteine methyl ester in DMSO was then freshly prepared, and added to the compound solution at final concentration of 250 μM. The solution mixture was incubated at room temperature, and at predetermined time intervals, an aliquot of the reaction mixture (10 μL) was sent for LC-MS analysis on Waters Autopurification System using a SunFire C18 HPLC column (50×4.6 mm with 5 μm diameter particles, Waters). Separation was achieved by gradient elution from 5% to 100% MeCN in water (constant 0.1 vol % formic acid) over 4 min, isocratic elution with 100% MeCN (with 0.1 vol % formic acid) from 4 to 8 min, and returning to 5% MeCN in water (with 0.1 vol % formic acid) and equilibrated for 2 min. Selected ion chromatograms, with m/z corresponding to the molecular ion of the compound and/or the adduct, were extracted and the data was analyzed using MassLynx™ software by calculating the area under the curve. The peak area was then calibrated to concentration of the compound/adduct by a set of solution mixtures containing known concentrations of the compound/adduct.
The reactivity of NAIA with cysteine in aqueous buffer solution has been investigated by LC-MS experiments (FIGS. 1A-1J). […] Upon addition of N-acetylcysteine methyl ester (250 μM), NAIA-5 reacted quickly and completely with N-acetylcysteine methyl ester within […], as reflected by the diminishment of the peak of NAIA-5 at t=6.20 min with a concomitant growth of a new peak at t=5.60 min in the LC, which is attributable to the cysteine adduct of NAIA-5 based on the MS (FIGS. 1B-1G). […] This highlights the important contribution of aromaticity of indole scaffold to increase electrophilicity of acrylamide warhead for fast and complete cysteine reaction in aqueous buffer solution.
Next, we monitored the reaction between NAIA-amide (10 μM) and N-acetylcysteine methyl ester (250 μM) by LC-MS analysis (FIG. 17A). Complete conversion of NAIA-C5 amide was observed within 40 s as indicated by the disappearance of NAIA-C5 amide peak (t=5.09 min) and emergence of the adduct peat (t=4.80 min) in the LC trace (FIG. 17B). Likewise, the reaction of NAIA-C4 amide proceeded with fast kinetics and was completely consumed in 1 min (FIG. 17C). The calculated rate constant of NAIA-C5 amide and NAIA-C4 amide were 2-fold and 1.2-fold faster than NAIA (FIG. 17D). […] Owning to the excellent reaction rate of NAIA-C5 amide, it was taken forward for further comparative analysis in subsequent experiments.

HepG2 cell lysates = assay: Gel-based ABPP, in vitro Cys labeling of HepG2 cell lysates (in-gel fluorescence); type: biochemical
Experimental: In-Gel Fluorescence for Visualizing Cys Labeling by NAIAs and IAA In Vitro
HepG2 or 231MFP cells were lysed by probe sonication in DPBS, and cell debris were removed by centrifugation at 1,000 g for 5 min. Protein concentration of the lysates was determined by bicinchoninic acid (BCA) assay, and the lysates were then diluted to 2 mg/mL by DPBS. 50 μL of the lysates were incubated with indicated concentrations of NAIA-4, NAIA-5 or IAA for indicated time interval at room temperature. […] Samples were then separated by molecular weight on precast 4-20% TGX gels (Thermo Scientific) and scanned by ChemiDoc MP (Bio-Rad Laboratories, Inc) for measuring in-gel fluorescence. […]
With the in vitro characterization data in hand, we next moved to investigate the ability of NAIA in labeling functional cysteines in cell lysates and live cells. […] After the reaction, the protein mixture was resolved by sodium dodecyl sulphate-polyacrylamide gel electrophoresis (SDS-PAGE) and in-gel fluorescence was measured. […] The fluorescence intensity from these labeled protein bands can then reflect the degree of cysteine labeling by the probes. […]

HepG2 cells = assay: MTT cell viability assay; type: cell-based
Experimental: MTT Cell Viability Assay of Cells Treated with NAIA-5
HepG2 cells were plated on 96-well plates (Corning, 3904) at 30,000 cells per well in 100 μL of complete medium and allowed to grow overnight. The cells were then incubated with DMSO solvent control or NAIA-5 at indicated concentrations for 1 h. The treated cells were then added with 10 μL of MTT solution in PBS (5 mg/mL) and incubated in dark at 37° C. with 5% CO2 for 4 h. After that, 100 μL of SDS solution in PBS ([…] with 0.01M HCl) was added for cell lysis. The plates were kept in dark overnight and cell viability were assayed by the absorption at 580 nm on Perkin Elmer Victor 3 ([…]).

[2] = compound 10 μM, N-Ac-Cys-OMe 250 μM, PBS/MeOH 4:1

SMILES | reaction kinetics with cysteine (k) ([1]; FIG. 7 legend summary) | cysteine reaction rate (in words) ([1]; compound 10 μM, N-Ac-Cys-OMe 250 μM) | compound left unreacted [1, 2] | cysteine labeling (in-gel fluorescence) compared with IAA, time-dependent (HepG2 cell lysates; 1 and 10 μM, 15 and 30 min) | cysteine labeling (in-gel fluorescence) compared with IAA (HepG2 cell lysates; 1 h incubation, three doses) | cellular toxicity (in words) (HepG2 cells; 10 μM for 1 h) | IC50 (HepG2 cells; MTT, 1 h incubation, read-out: IC50 (cytotoxicity)) | cell viability (in words) (HepG2 cells; treatment for 1 h) | time to complete reaction with N-acetylcysteine methyl ester [1, 2]
C#CCCCCNC(=O)CI [IAA, N-Hex-5-ynyl-2-iodoacetamide, reference compound] | ~10^0 M^−1 s^−1 | react much slower with cysteine than our NAIAs | more than 40% | – | – | – | – | – | –
C#CCCCCNC(=O)COc1ccc2c(ccn2C(=O)C=C)c1 [NAIA-5] | – | – | – | more cysteine labeling by NAIA-5 than IAA was found at 1 and 10 μM for both 15 and 30 min incubation | more cysteine labeling than IAA at all the three doses tested | no significant cellular toxicity was found | > 40 µM | no significant changes in viability of HepG2 cells | ≤ 300 s

From patent US20240103005A1, “N-ACRYLOYLINDOLES AND METHODS OF USE” (The University of Hong Kong, priority 2022, published 2024)
